Laboratory results from patent US20130052280A1, “USE OF THEBROMINE FOR LOWERING CENTRAL BLOOD PRESSURE” (priority 2010, published 2013).

Experiments:
[1] = system: untreated prehypertensive males and females; test: Central blood pressure by applanation tonometry at the radial artery (pulse wave analysis), randomised controlled cross-over study; assay type: in vivo, humans
Method: In a randomised controlled cross-over study with 42 untreated prehypertensive males and females the effect of cocoa-containing drinks either high in polyphenols or high in polyphenols and theobromine was assessed on blood pressure (BP). The subjects consumed for 3 weeks daily (in the morning before breakfast) 200 ml acidified dairy drink as in table 1, with added to that 1) none (control drink), 2) 3.65 g cocoa powder (Acticoa, Barry-Callebaut) containing 500 mg polyphenols and 79 mg theobromine (amount in product specification Acticoa) and 3) 5 g cocoa powder containing 500 mg polyphenols and 79 mg theobromine plus added thereto 918 mg pure theobromine (Fagron, Ph. […] Peripheral BP was measured by 24-hours ambulatory BP at the brachial artery, while central blood pressure was measured by applanation tonometry at the radial artery, using a transfer function to estimate central pulse wave forms, systolic and diastolic BP (SBP and DBP, respectively), pulse pressure (SBP-DBP) and augmentation index. […] Augmentation index (AIx), defined as the ratio of augmentation to central pulse pressure, is expressed as a percentage: AIx=(ΔP/PP)×100, where P is pressure and PP is pulse pressure. […] Pulse pressure amplification (PPA) is expressed as the ratio of […]: PPA=PPP/CPP. […]

[2] = system: untreated prehypertensive males and females; test: 24-hour ambulatory blood pressure and heart rate (peripheral BP at the brachial artery), randomised controlled cross-over study; assay type: in vivo, humans; settings: for some time after ingestion
Method: In a randomised controlled cross-over study with 42 untreated prehypertensive males and females the effect of cocoa-containing drinks either high in polyphenols or high in polyphenols and theobromine was assessed on blood pressure (BP).
The subjects consumed for 3 weeks daily (in the morning before breakfast) 200 ml acidified dairy drink as in table 1, with added to that 1) none (control drink), 2) 3.65 g cocoa powder (Acticoa, Barry-Callebaut) containing 500 mg polyphenols and 79 mg theobromine (amount in product specification Acticoa) and 3) 5 g cocoa powder containing 500 mg polyphenols and 79 mg theobromine plus added thereto 918 mg pure theobromine (Fagron, Ph. […]
Peripheral BP was measured by 24-hours ambulatory BP at the brachial artery, while central blood pressure was measured by applanation tonometry at the radial artery, using a transfer function to estimate central pulse wave forms, systolic and diastolic BP (SBP and DBP, respectively), pulse pressure (SBP-DBP) and augmentation index. […]
An automatic ambulatory BP monitor (Spacelabs 90207, Spacelabs In., Redmond, Wash., USA) was placed on the non-dominant arm in all subjects. Systolic and diastolic BP and heart rate (HR) were recorded over at least 24 h. […]
Baseline data was expressed as mean plus standard deviation for variables with a parametric distribution and median plus range for variables with a skewed distribution. […]

Cn1cnc2c1c(=O)[nH]c(=O)n2C [theobromine, 3,7-dimethylxanthine]
reduction of central blood pressure compared to when theobromine is not ingested ([1]; ingestion in an effective amount): at least 2 mmHg | reduction of central BP ([1]; single daily dose of 1000 mg theobromine, p=0.003): 3.3% | heart rate after ingestion of the effective amount (in words) [2]: elevated | peripheral BP after ingestion of the effective amount (in words) [2]: elevated
